Measurements taken from US20060204980A1, “Colorectal cancer therapies” (priority 2004, published 2006).

Assays:
GSK3β = GSK3β (Homo sapiens, UniProt P49841); details: battery of kinase substrates, Bain et al.; cited from earlier work
[1] = test system: wild-type (WT) or GSK3β^−/− primary murine embryonic fibroblasts (MEF) cells; test: Western blotting of p53 in wild-type or GSK3β-/- primary MEF cells; format: cell-based; set-up: dose or concentration left out as unconfirmed; details: Purvalanol A, 6-24 hour
Excerpt: To confirm the link between GSK3β inhibition and p53 modulation in vivo, p53^+/+ HCT116 cells were transfected with wild-type GSK3β or a kinase-dead GSK3β dominant negative mutant (GSK3β DN mutant), previously described in Pap and Cooper, J. Biol. Chem., 273:19929-19932 (1998). Non-transformed wild-type (WT) or GSK3β^−/− primary murine embryonic fibroblasts (MEF) cells, described in Hoeflich et al., Nature, 406:86-90 (2000), were maintained in culture in DMEM supplemented with 10% FCS, 100 U/ml penicillin, and 100 μg/ml streptomycin (all from Invitrogen) in 5% CO2 at 37° C. […] Western blotting was performed as described in Example 2, to evaluate the expression of p53, p21^Waf1/Cip1 or β-actin at 6-24 hour intervals.

Cdk2 = Cdk2 (Homo sapiens, UniProt P24941); details: in vivo, Knockaert et al.; cited from earlier work
[2] = test system: in vivo adapted p53^+/+ HCT116 cells; test: Xenograft tumor model with in vivo adapted p53+/+ HCT116 cells; set-up: species or system CB17 SCID/beige mice
Protocol: In vivo adapted p53^+/+ HCT116 cells (2.5×10^6) were injected in the flank of CB17 SCID/beige mice (Taconics, Germantown, N.Y.) and allowed to form palpable solid tumors for 4-6 days. […] Tumor measurements were taken daily for a week with a caliper. Tumor volume was calculated according to the formula ½ [length (mm)]×[width (mm)]^2.
Adapted HCT116 cells in CB-17 SCID/beige mice gave rise to rapidly growing solid tumors over a one-week period. […] See filled-in circles in FIG. 7.

p53^−/− HCT116 cells = test: Hypodiploid DNA content by propidium iodide staining and flow cytometry, p53-/- HCT116; format: cell-based
Protocol: (§1) Cells were collected and centrifuged at 3,000 rpm for 5 minutes at 4° C., and washed in PBS (pH 7.2). The cell pellet was solubilized in lysis buffer (20 mM Tris, pH 7.2, 0.5% deoxycholate, 1% Triton X-100, 0.1% SDS, 150 mM NaCl, 1 mM EDTA) containing proteases inhibitors (Complete, Roche Applied Science) for 30 min at 4° C. The lysate was cleared by centrifugation for 15 minutes, and protein concentration was evaluated using a Bio-Rad protein assay system (Bio-Rad Laboratories, Hercules, Calif.). Samples (30 μg) were separated by SDS-polyacrylamide gel, transferred to nylon membranes (Millipore), and incubated with primary antibodies to p53 (Oncogene Research Products, FL-393, Santa Cruz Biotechnology, Inc., Santa Cruz, Calif.), p21^Waf1/Cip1 (Oncogene Research Products), XIAP (BD Transduction Laboratories), survivin (NOVUS Biologicals, Littleton, Colo.), MDM2 (Santa Cruz Biotechnology, Inc.), p14^ARF (NOVUS Biologicals), caspase-3 (Cell Signaling Technology), cleaved caspase-3 (Cell Signaling Technology), β-catenin (BD Transduction Laboratories), cyclin B1 (GNS1, Santa Cruz Biotechnology, Inc.), GSK3β (Santa Cruz Biotechnology, Inc.), or β-sactin (Sigma) with detection of reactive bands by chemiluminescence (Amersham). Cells were analyzed for hypodiploid DNA content by propidium iodide staining and flow cytometry as described in O'Connor et al., Cancer Cell, 2:43-54 (2002). Chemicals whose source is not explicitly listed were or can be obtained from Sigma.
The functional consequences of GSK3β inhibition were explored. Source and maintenance of p53^+/+ and p53^−/− HCT116 colorectal carcinoma cells were as described in Example 2. […] Alternatively, cells were incubated with GSK3β inhibitors LiCl (30 mM) or TDZD (20 μM), harvested after 48 hours and analyzed for cell viability (propidium iodide, red channel) and active caspase-3/7 activity (green channel, […]®, from Chemicon International Inc., Temecula, Calif.), by multiparametric flow cytometry as reported previously in Kim et al., Lancet, 362:205-209 (2003). […]

[3] = test system: p53^−/− HCT116 colorectal carcinoma cells; test: Western blotting of p53 pathway proteins in treated p53-/- HCT116 cells; format: cell-based
Protocol: as §1
To explore the link between GSK3β inhibition and p53 modulation, in vivo, HCT116 cells were treated with Li, TDZD or SB216763, and analyzed cells by Western blotting. p53^+/+ or p53^−/− HCT116 cells were incubated with the following GSK3β inhibitors, LiCl (Sigma, 30 mM), thiadiazolidinone-8 (TDZD) (Calbiochem, 0-20 μM), or SB216763 (Sigma, 20 μM), cells were harvested after 6-24 hours, and samples were analyzed by Western blotting as described in Example 2.

Chain of GSK3β (P49841 whole entry): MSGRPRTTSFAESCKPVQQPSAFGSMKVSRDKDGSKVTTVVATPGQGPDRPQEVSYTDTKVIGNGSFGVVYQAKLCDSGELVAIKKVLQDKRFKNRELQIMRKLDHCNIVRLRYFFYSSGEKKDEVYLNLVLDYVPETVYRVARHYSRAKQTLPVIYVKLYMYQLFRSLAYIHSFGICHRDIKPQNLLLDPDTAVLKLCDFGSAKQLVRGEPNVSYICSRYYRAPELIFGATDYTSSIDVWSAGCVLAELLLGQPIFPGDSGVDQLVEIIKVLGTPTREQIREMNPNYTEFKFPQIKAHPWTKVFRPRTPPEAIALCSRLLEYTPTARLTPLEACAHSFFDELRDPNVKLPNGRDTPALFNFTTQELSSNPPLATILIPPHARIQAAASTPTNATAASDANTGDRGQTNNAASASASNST

CC(C)[C@H](CO)Nc1nc(Nc2cccc(Cl)c2)c2ncn(C(C)C)c2n1 [Purvalanol A]
activity against GSK3β in vitro (GSK3β): not active against GSK3β
p53 expression (Western blot) [1]: did not further modulate p53 expression
suppression of Cdk2 (Cdk2): equally effective
systemic toxicity, weight loss ([2]; 20 mg/kg i.p. daily for 5 consecutive days): No signs of systemic toxicity or weight loss
early tumor growth (tumor volume) ([2]; 25 mg/kg i.p. daily for 5 days): significantly inhibited early tumor growth
tumor growth (tumor volume) ([2]; 50 mg/kg i.p. injection daily for 5 days, versus lower dose): did not result in further inhibition of tumor growth
local or systemic toxicity, weight loss ([2]; 25 and 50 mg/kg i.p. daily for 5 days): no signs of local or systemic toxicity or weight loss
apoptosis / cell death (hypodiploid DNA content) (p53^−/− HCT116 cells; 0-20 μM, 48 hours): largely resistant to Purvalanol A-induced cell death
cell cycle effect (DNA content) (p53^−/− HCT116 cells; 0-20 μM, 48 hours): sustained G2/M arrest
enhancement of cell death in survivin-ablated (S4) vs VIII transfectants treated with Purvalanol A (p53^−/− HCT116 cells; survivin RNAi (S4), Purvalanol A 5 μM, 24 hour): 2.5 fold
p53-reactive material (Western blot) [3]: did not modulate the expression of p53-reactive material
survivin expression (Western blot) [3]: no significant changes in survivin levels
